Test results: ChEMBL document CHEMBL1201862, “PubChem BioAssay data set” (2004)
Calls of active or inactive are those of the source.

Legend:
[1] = cells; assay type: functional, cell-based; settings: HEK-CNG
[2] = target: Galanin receptor type 3 (Homo sapiens, UniProt O60755); experiment: Fluorescence-based cell-based primary high throughput dose response assay to identify antagonists of the Galanin Receptor 3 (GalR3).; assay type: functional
[3] = target: T1, Nuclear receptor subfamily 0 group B member 1 (Homo sapiens, UniProt P51843); assay type: functional, cell-based;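 further: HEK293T cells transfected with SF-1 and DAX-1 plus StAR promoter luciferase reporter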
T1 sequence (P51843 whole entry): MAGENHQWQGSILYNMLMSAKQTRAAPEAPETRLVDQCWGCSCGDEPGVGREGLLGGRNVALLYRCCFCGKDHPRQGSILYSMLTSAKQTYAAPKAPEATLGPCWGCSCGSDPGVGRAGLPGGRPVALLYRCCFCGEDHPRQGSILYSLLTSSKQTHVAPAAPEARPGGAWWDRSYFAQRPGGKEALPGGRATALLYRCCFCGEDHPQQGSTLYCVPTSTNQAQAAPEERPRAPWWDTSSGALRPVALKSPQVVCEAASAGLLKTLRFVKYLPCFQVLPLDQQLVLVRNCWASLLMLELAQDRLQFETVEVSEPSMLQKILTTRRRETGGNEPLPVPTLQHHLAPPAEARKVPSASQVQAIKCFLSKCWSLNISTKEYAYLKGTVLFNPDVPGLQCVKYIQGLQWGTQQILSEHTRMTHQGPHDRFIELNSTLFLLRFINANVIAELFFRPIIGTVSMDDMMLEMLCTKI

[4] = cells; assay type: functional, cell-based
[5] = blockers of HIV-1 envelope-mediated cell-cell fusion – cherry-pick, dose response (AID 652057); assay type: functional, cell-based
[6] = cells; settings: A549
[7] = cells; settings: HEK293
[8] = target: T2, Endoribonuclease toxin MazF (Escherichia coli K-12, UniProt P0AE70); experiment: activation of MazEF endoribonuclease cleavage – biochemical, fluorescence, single-stranded RNA substrate, uHTS hits, dose response (AID 588481); assay type: functional
T2 sequence (P0AE70 whole entry): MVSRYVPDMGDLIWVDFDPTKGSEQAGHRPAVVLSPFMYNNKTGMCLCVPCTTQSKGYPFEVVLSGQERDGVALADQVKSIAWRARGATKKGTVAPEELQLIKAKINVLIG

[9] = cells
[10] = target: T2, Endoribonuclease toxin MazF; experiment: substrate-only fluorescence increase artefacts – biochemical, single-stranded RNase substrate, counter-screen for MazEF activator project, dose response (AID 588502); assay type: functional
[11] = Luminescence Cell-Based Dose Confirmation HTS to Identify Inhibitors of Platelet Dense Granule Release. [Related pubchem assays: 1663 (Primary HTS), 1678 (Summary of Project)]; assay type: functional
[12] = target: Luciferin 4-monooxygenase (Photinus pyralis, UniProt P08659); experiment: inhibition of purified Photinus pyralis luciferase – biochemical, luminescence, dose response (AID 1891)
[13] = cells; remark: listed apart in the source
[14] = target: T3, Oxysterols receptor LXR-beta (Homo sapiens, UniProt P55055); assay type: functional, cell-based;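 further: Cell-based luminescence dose-response assay of agonist activity at LXR, run as a confirmatory counterscreen to a daf-12 agonist screen; HEK293 cells with Gal4-LXR fusion and GAL4-driven luciferase reporter; agonist potency from rising luciferase signal of a Gal4-LXR reporter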
T3 sequence (P55055 whole entry): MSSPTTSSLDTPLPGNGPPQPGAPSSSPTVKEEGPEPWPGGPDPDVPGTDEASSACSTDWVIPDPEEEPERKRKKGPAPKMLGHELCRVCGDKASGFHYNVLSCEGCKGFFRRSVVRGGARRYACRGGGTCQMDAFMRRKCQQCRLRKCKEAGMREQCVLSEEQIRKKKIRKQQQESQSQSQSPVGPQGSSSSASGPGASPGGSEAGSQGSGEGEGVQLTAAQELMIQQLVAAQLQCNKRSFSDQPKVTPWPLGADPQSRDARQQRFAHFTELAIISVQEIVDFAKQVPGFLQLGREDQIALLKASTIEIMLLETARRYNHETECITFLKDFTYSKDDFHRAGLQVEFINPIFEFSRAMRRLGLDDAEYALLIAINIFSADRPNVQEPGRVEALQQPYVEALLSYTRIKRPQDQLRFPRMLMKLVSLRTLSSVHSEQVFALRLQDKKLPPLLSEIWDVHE

[15] = target: T4, Polyadenylate-binding protein 1 (Homo sapiens, UniProt P11940); experiment: MLLE binding blockers, Cy5 peptide tracer – biochemical, fluorescence polarization, Cy5-PAM2 peptide, secondary, miRNA deadenylation inhibitor project, dose response (AID 602260); assay type: functional; settings: read-out: IC50_Mean
[16] = target: SWI/SNF-related matrix-associated actin-dependent regulator of chromatin subfamily A member 2 (Homo sapiens, UniProt P51531); experiment: Luminescence-based cell-based high throughput dose response assay to identify activators of the function of SWI/SNF related, matrix associated, actin dependent regulator of chromatin, subfamily a, member 2 (SMARCA2, BRM).; assay type: functional
[17] = Counterscreen for activators of the function of SWI/SNF related, matrix associated, actin dependent regulator of chromatin, subfamily a, member 2 (SMARCA2, BRM): Luminescence-based cell-based high throughput dose response assay to identify non-selective compounds using the VP16 reporter assay.; assay type: functional
[18] = target: T4, Polyadenylate-binding protein 1; experiment: MLLE domain peptide-binding blockers, IC50 – biochemical, fluorescence polarization, FITC-PAM2 peptide, dose response (AID 602259); assay type: functional; settings: read-out: IC50_Mean
[19] = test system: HepG2; experiment: viability loss in HepG2 hepatoma cells – cell-based, cherry-picks, set 2, cytotoxicity control, dose response (AID 687002); assay type: functional; settings: Homo sapiens
[20] = test system: A549; experiment: viability loss in A549 cells – cell-based, plate reader, cherry-pick samples, cytotoxicity control, dose response (AID 687028); assay type: functional; settings: Homo sapiens
[21] = test system: Vero; experiment: viability loss in Vero cells – cell-based, plate reader, cherry-pick samples, cytotoxicity control, dose response (AID 687020); assay type: functional; settings: Chlorocebus sabaeus
[22] = target: COUP transcription factor 2 (Homo sapiens, UniProt P24468); experiment: Luminescence-based cell-based high throughput dose response assay to identify inhibitors of COUP-TFII (NR2F2).; assay type: functional;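 further: HEK293 cells transiently cotransfected with COUP-TFII expression vector and reporter; luciferase reporter luminescence driven by COUP-TFII from the pX2-168 reporter plasmid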
[23] = microbe, parasite or virus in culture; assay type: functional; settings: Mycobacterium tuberculosis
[24] = blockers of bursicon-stimulated LGR2 cAMP reporter – cell-based, HEK293, CRE-luciferase reporter, cherry pick, set 2, dose response (AID 743343); assay type: functional;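 further: transfected cells were stimulated with diluted bursicon conditioned medium after compound addition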
[25] = A549 cell cytotoxicity, dose response, cytotoxicity control, plate reader, cherry-pick, antagonist series (AID 743412); assay type: functional, cell-based
[26] = OVCAR8 cell viability loss – plate reader, dry powder samples, PAX8 project, dose response (AID 743197); assay type: functional, cell-based; settings: OVCAR-8
[27] = A549 cell viability loss – cherry-picked samples, cytotoxicity control, dose response (AID 1053184); assay type: functional, cell-based
[28] = IGROV1 cell killing – plate reader, dry powder samples, PAX8 inhibitor project, dose response (AID 743043); assay type: functional, cell-based; settings: IGROV-1
[29] = toxicity toward immortalized ovarian surface epithelium – cell-based, plate reader, dry powder samples, cytotoxicity control for PAX8 inhibitor project, dose response (AID 743045); assay type: functional
[30] = OVCAR-3 cell viability loss – plate reader, dry powder samples, PAX8 inhibitor project, dose response (AID 743044); assay type: functional, cell-based
[31] = viability loss in HEK293 cells – cell-based, plate reader, cherry-picked samples, cytotoxicity control, dose response (AID 743446); assay type: functional
[32] = target: Paired box protein Pax-8 (Homo sapiens, UniProt Q06710); experiment: PAX8 transcriptional activity inhibition in RMG-I – RMG-I cells, luciferase, cherry-pick, dose response (AID 687027); assay type: functional, cell-based;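 further: luciferase reporter driven by Pax8 target thyroperoxidase promoter measured by SteadyGlo luminescence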
[33] = HepG2 cell viability loss – cherry-picked samples, cytotoxicity control, dose response (AID 1053183); assay type: functional, cell-based
[34] = HEK293 cell viability loss – cherry-picked samples, cytotoxicity control, dose response (AID 1053185); assay type: functional, cell-based
[35] = blockade of melanocortin 4 receptor signaling – cell-based, plate reader, cherry pick, counter-screen for LGR2 antagonist project, dose response (AID 743444); assay type: functional;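 further: transfected HEK 293 cells stimulated with alpha-MSH peptide; potency of inhibitors of the alpha-MSH evoked signal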
[36] = toxicity toward HepG2 liver cells – cell-based, plate reader, cherry-pick, antagonist series, cytotoxicity control, dose response (AID 743416); assay type: functional

T4 sequence (P11940 whole entry): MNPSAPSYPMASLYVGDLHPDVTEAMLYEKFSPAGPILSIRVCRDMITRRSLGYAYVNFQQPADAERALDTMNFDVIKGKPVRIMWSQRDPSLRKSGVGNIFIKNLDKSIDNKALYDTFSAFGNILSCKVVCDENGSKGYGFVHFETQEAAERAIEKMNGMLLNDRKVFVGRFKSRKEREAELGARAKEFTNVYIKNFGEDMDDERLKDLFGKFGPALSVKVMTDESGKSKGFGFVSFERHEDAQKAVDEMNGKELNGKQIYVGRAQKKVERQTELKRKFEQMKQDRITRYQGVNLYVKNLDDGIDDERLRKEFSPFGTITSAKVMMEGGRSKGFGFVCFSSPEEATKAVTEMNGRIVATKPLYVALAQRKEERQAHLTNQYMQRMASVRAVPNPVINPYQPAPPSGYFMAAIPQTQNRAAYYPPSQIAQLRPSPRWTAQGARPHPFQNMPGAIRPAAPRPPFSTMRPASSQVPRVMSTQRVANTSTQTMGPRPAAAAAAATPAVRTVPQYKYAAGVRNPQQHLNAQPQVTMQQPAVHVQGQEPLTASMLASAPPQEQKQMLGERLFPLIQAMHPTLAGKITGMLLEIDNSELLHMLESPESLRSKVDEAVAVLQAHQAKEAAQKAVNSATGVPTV
Paired box protein Pax-8, sequence (Q06710 whole entry): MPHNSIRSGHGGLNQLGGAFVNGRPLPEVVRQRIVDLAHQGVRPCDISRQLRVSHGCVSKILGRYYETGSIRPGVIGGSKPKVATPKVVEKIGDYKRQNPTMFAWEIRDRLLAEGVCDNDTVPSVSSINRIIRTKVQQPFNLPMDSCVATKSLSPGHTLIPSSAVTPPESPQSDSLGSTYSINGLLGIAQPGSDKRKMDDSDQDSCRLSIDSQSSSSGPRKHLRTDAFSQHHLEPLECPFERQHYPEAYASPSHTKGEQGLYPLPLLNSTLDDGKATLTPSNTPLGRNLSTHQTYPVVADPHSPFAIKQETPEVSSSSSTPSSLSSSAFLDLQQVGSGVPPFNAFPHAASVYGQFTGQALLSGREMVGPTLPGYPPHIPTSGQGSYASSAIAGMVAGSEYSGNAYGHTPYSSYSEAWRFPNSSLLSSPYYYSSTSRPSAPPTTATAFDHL
Luciferin 4-monooxygenase, sequence (P08659 whole entry): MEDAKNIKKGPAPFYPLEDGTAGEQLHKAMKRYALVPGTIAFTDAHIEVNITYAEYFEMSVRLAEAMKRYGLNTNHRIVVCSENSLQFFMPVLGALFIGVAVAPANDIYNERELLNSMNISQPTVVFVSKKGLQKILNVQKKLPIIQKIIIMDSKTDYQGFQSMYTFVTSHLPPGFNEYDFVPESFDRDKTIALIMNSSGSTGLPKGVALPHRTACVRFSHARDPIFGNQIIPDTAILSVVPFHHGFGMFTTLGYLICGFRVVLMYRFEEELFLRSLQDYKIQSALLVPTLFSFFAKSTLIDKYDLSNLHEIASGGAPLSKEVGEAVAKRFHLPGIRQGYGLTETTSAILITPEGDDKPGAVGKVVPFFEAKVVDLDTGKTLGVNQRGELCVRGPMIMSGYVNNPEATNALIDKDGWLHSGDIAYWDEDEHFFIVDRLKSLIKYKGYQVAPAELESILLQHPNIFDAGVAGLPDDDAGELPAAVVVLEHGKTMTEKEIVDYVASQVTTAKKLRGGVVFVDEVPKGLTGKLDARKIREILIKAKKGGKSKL
SWI/SNF-related matrix-associated actin-dependent regulator of chromatin subfamily A member 2, sequence (P51531 whole entry): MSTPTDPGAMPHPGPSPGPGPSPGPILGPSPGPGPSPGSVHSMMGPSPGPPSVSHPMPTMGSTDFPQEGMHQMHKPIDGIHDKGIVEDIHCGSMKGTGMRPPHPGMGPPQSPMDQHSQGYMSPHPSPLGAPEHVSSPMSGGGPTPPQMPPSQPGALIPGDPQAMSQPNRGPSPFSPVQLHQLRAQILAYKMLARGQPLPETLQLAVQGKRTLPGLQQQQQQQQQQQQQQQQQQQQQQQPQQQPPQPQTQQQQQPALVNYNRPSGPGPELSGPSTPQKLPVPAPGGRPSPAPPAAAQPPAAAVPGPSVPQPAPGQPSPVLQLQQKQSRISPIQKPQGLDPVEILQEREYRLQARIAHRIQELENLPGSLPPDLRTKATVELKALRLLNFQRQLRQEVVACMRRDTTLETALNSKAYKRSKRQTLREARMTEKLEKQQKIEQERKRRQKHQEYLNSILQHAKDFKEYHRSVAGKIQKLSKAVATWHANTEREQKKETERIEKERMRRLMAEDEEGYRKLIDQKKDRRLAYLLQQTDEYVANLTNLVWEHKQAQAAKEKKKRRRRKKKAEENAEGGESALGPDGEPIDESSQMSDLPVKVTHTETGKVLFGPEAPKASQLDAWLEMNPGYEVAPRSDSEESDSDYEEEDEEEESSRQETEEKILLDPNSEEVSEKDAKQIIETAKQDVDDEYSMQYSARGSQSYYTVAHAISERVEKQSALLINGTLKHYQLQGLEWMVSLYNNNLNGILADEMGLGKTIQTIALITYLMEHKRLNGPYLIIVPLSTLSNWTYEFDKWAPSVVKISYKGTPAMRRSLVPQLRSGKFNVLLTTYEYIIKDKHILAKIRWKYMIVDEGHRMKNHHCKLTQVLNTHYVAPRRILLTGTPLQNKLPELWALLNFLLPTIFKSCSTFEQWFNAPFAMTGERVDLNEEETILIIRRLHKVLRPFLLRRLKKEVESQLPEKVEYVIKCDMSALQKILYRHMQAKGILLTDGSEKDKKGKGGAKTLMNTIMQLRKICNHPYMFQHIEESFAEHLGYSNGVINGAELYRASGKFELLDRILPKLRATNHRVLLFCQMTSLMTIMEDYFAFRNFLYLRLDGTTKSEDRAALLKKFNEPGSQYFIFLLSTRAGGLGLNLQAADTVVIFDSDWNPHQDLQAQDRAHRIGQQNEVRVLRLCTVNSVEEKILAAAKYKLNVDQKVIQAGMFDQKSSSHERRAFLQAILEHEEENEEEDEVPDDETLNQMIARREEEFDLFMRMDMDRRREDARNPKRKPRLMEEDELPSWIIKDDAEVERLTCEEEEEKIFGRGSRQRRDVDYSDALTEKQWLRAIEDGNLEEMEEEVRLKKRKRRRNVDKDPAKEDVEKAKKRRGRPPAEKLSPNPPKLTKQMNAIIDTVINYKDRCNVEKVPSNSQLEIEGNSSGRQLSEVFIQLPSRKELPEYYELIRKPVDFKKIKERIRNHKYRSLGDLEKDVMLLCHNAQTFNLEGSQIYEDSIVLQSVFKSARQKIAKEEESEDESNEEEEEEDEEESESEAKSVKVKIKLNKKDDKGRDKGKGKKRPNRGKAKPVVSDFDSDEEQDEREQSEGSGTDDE
COUP transcription factor 2, sequence (P24468 whole entry): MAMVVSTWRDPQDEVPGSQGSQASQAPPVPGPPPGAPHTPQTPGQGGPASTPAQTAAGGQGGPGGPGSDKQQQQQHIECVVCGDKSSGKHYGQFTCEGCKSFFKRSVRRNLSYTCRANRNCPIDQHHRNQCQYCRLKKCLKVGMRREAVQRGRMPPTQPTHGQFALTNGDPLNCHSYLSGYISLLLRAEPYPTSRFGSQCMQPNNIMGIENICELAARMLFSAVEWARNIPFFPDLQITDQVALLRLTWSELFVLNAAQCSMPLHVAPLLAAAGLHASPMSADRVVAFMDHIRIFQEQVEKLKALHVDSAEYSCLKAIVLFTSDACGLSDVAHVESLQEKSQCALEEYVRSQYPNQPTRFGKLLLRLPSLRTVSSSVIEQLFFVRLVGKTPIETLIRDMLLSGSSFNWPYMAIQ
Galanin receptor type 3, sequence (O60755 whole entry): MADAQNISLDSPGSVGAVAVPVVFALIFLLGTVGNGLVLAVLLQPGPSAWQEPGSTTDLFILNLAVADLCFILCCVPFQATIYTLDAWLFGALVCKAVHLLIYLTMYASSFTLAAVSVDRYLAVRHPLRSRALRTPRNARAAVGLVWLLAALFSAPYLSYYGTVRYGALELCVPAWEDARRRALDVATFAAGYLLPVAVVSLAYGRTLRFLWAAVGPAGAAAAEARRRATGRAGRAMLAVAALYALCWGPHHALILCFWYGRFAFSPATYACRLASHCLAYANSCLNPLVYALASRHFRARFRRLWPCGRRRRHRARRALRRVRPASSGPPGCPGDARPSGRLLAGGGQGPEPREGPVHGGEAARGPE

COc1cccc2[nH]c3c(N4CCCC(C)C4)ncnc3c12 (stereo unspecified)
EC50 [1]: > 29.9 µM (inactive) | IC50 [2]: 0.4 µM (active)

Cc1ccc(NC(=O)c2ccc3snnc3c2)cc1C
IC50 [3]: > 67.6 µM (inactive) | IC50 [4]: > 67.6 µM (inactive)

C=CCN1C(=S)CC(c2ccccc2)=Nc2ccccc21
AC50 [5]: 47.9 µM (active) | AC50 [6]: > 52 µM (inactive) | AC50 [7]: > 52 µM (inactive)

CCOC(=O)c1cc2c(=O)n3ccccc3nc2n(Cc2ccc(Cl)cc2)c1=N
EC50 [8]: > 99 µM (inactive) | AC50 [9]: 1.99 µM (active) | EC50 [10]: > 99 µM (inactive)

N=C(NOC(=O)c1ccc(Cl)cc1Cl)c1ccccc1
EC50 [11]: 6.01 µM (active) | EC50 [12]: 1.06 µM (active) | EC50 [13]: > 67.5 µM (inactive) | EC50 [14]: > 67.5 µM (inactive)

Cn1sccc1=O
IC50 [15]: > 66 µM (inactive) | EC50 [16]: > 91.2 µM (inactive) | EC50 [17]: > 91.2 µM (inactive) | IC50 [18]: > 66 µM (inactive)

O=C(CSc1ncnc2c1cnn2-c1ccccc1)Nc1ccc2c(c1)OCO2
AC50 [19]: 14 µM (active)

COc1ccccc1C(=O)N1[C@@H](C(C)C)COc2cc(Br)ccc2S1(=O)=O
AC50 [20]: 24.4 µM (active) | AC50 [21]: 28 µM (active)

C/C(=N\NC(N)=S)C1C2C3CC4C5CC(C42)C1C53 (stereo unspecified)
IC50 [22]: 6.4 µM (active) | CC50 [23]: > 40 µM (active)

Cc1ccccc1S(=O)(=O)N1C[C@@H]2N[C@H](C1)[C@H]2c1ccc(-c2cccc(C#N)c2)cc1
AC50 [24]: 14.8 µM (active) | AC50 [25]: 7.87 µM (active) | AC50 [26]: 39.1 µM (active) | AC50 [27]: 36.5 µM (active) | AC50 [28]: 20.5 µM (active) | AC50 [29]: 51.4 µM (active) | AC50 [30]: 21.7 µM (active) | AC50 [31]: 20.4 µM (active) | AC50 [32]: 3.75 µM (active) | AC50 [33]: 31.9 µM (active) | AC50 [34]: 35.5 µM (active) | AC50 [35]: 14.3 µM (active) | AC50 [36]: 9.35 µM (active)
